One assay deals with T1, TRPC5-TRPC1 concatemer (Homo sapiens, UniProt P48995+Q9UL62).
T1 construct: concatemer of TRPC5 with TRPC1
In words: fura-2 Ca2+ entry, FlexStation 96-well. The format is cell-based. The settings on record: read-out: C31 IC50. An excerpt: fura-2 Ca2+ entry, FlexStation 96-well on TRPC5-TRPC1 concatemer

A further assay deals with T2, TRPC5 (Homo sapiens, UniProt Q9UL62).
T2 construct: homomer
T2 sequence (Q9UL62 1-973): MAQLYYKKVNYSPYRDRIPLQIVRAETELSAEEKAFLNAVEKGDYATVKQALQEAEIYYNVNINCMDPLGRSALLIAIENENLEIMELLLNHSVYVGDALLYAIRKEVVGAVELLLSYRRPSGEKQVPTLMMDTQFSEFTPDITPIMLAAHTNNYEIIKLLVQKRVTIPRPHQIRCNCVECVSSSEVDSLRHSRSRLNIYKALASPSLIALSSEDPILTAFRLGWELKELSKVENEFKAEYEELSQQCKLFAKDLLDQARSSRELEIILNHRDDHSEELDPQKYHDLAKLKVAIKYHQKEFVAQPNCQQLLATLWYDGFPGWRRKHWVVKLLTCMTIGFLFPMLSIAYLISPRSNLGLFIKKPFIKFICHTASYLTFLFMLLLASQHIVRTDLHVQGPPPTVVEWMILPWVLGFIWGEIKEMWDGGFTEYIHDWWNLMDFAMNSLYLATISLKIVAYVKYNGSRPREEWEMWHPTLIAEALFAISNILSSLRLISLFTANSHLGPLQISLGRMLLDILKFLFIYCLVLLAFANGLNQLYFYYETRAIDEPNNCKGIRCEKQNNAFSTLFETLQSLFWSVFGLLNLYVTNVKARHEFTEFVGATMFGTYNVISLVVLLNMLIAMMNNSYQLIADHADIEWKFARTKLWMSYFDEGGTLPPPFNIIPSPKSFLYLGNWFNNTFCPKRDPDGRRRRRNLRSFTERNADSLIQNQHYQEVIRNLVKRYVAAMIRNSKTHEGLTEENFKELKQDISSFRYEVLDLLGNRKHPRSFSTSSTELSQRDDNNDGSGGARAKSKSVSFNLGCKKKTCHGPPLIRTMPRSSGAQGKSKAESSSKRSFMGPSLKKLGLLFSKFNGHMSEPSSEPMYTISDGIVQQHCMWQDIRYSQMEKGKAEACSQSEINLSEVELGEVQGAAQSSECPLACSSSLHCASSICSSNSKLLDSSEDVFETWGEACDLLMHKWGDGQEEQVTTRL
In words: fura-2 Ca2+ entry, FlexStation 96-well. The format is cell-based. The settings on record: activated by 10 nM (-)-englerin A; pH 7.4; room temperature; 30 min preincubation; read-out: C31 IC50. The source says:
fura-2 Ca2+ entry, FlexStation 96-well on TRPC5

T1 sequence (P48995 whole entry, one chain of several): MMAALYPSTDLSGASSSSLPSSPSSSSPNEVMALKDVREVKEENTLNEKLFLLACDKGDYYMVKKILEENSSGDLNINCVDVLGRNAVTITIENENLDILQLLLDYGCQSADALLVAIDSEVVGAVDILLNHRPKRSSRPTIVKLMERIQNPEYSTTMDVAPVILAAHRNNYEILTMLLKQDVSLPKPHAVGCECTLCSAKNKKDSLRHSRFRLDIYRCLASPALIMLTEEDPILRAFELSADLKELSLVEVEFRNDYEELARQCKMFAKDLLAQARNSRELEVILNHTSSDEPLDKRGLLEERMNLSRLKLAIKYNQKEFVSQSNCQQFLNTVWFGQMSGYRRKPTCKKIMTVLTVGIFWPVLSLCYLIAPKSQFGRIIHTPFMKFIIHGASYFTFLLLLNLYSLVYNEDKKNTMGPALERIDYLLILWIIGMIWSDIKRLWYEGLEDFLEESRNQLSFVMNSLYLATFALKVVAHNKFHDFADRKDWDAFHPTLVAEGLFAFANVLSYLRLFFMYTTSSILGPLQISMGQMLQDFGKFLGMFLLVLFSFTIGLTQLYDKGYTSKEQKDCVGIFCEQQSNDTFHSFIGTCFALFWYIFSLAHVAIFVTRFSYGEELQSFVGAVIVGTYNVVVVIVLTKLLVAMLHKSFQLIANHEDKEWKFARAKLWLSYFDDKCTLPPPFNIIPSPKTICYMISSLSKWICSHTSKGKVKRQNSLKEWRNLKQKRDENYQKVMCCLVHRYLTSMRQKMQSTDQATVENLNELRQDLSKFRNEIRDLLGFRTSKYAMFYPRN

For the compound `Cn1c(=O)n(CCCO)c(=O)c2c1nc(Oc1cccc(OC(F)(F)F)c1)n2Cc1ccc(Cl)cc1` [compound 31, C31], the figures for the IC50 at TRPC5-TRPC1 concatemer and at TRPC5 were 0.199 nM and 1.3 nM, respectively.
